Source: ChEMBL document CHEMBL4190345, “Synthesis and biological evaluation of new substituted thioglycolurils, their analogues and derivatives” (Eur J Med Chem, 2017)

Legend:
Venturia inaequalis = experiment: Fungicidal activity against Venturia inaequalis grown under potato-saccharose agar assessed as inhibition of mycelial radial growth at 30 mg/l incubated for 72 hrs; format: functional; settings: read-out: GI
Rhizoctonia solani = experiment: Fungicidal activity against Rhizoctonia solani grown under potato-saccharose agar assessed as inhibition of mycelial radial growth at 30 mg/l incubated for 72 hrs; format: functional; settings: read-out: GI
Bipolaris sorokiniana = experiment: Fungicidal activity against Bipolaris sorokiniana grown under potato-saccharose agar assessed as inhibition of mycelial radial growth at 30 mg/l incubated for 72 hrs; format: functional; settings: read-out: GI
Fusarium verticillioides = experiment: Fungicidal activity against Fusarium moniliforme grown under potato-saccharose agar assessed as inhibition of mycelial radial growth at 30 mg/l incubated for 72 hrs; format: functional; settings: read-out: GI
Fusarium oxysporum = experiment: Fungicidal activity against Fusarium oxysporum grown under potato-saccharose agar assessed as inhibition of mycelial radial growth at 30 mg/l incubated for 72 hrs; format: functional; settings: read-out: GI
Sclerotinia sclerotiorum = experiment: Fungicidal activity against Sclerotinia sclerotiorum grown under potato-saccharose agar assessed as inhibition of mycelial radial growth at 30 mg/l incubated for 72 hrs; format: functional; settings: read-out: GI
A549 = experiment: Cytotoxicity in human A549 cells assessed as inhibition of cell growth incubated for 72 hrs by MTT assay; format: functional, cell-based; settings: A549, 72 h
[1] = Cytotoxicity in human […] cells assessed as inhibition of cell growth incubated for 72 hrs by MTT assay; format: functional, cell-based
MCF7 = experiment: Cytotoxicity in human MCF7 cells assessed as inhibition of cell growth incubated for 72 hrs by MTT assay; format: functional, cell-based; settings: MCF7, 72 h
RD = experiment: Cytotoxicity in human RD cells assessed as inhibition of cell growth incubated for 72 hrs by MTT assay; format: functional, cell-based
HEK293 = experiment: Cytotoxicity in human HEK293 cells assessed as inhibition of cell growth incubated for 72 hrs by MTT assay; format: cell-based; settings: Homo sapiens, HEK293, 72 h; read-out: IC50

| SMILES | inhibition of growth at 30 µg/mL (Venturia inaequalis) | inhibition of growth at 30 µg/mL (Rhizoctonia solani) | inhibition of growth at 30 µg/mL (Bipolaris sorokiniana) | inhibition of growth at 30 µg/mL (Fusarium verticillioides) | inhibition of growth at 30 µg/mL (Fusarium oxysporum) | inhibition of growth at 30 µg/mL (Sclerotinia sclerotiorum) | IC50 (A549) | IC50 [1] | IC50 (MCF7) | IC50 (RD) | IC50 (HEK293) |
| --- | --- | --- | --- | --- | --- | --- | --- | --- | --- | --- | --- |
| CCSC1=NC2C(N(C)C(=O)N2C)N1/N=C/C=C/c1ccccc1 (stereo not given) | 28% | 80% | 48% | 71% | 70% | 32% | – | – | – | – | – |
| CCN1C(=O)N(CC)C2C1N=C(SCc1ccc(Cl)cc1)N2/N=C/C=C/c1ccccc1OC (stereo not given) | 21% | 19% | 36% | 13% | 8% | 14% | – | – | – | – | – |
| COc1ccc(/C=C/C=N/N2C(=S)NC3C2N(C)C(=O)N3C)cc1 (stereo not given) | – | – | – | – | – | – | > 100 µM | 99.1 µM | > 100 µM | > 100 µM | – |
| CSC1=NC2C(N(C)C(=O)N2C)N1/N=C/C=C/c1ccccc1[N+](=O)[O-] (stereo not given) | 10% | 49% | 36% | 19% | 20% | 13% | > 100 µM | > 100 µM | > 100 µM | > 100 µM | – |
| CC(C)(C)C(=O)C(Oc1ccc(Cl)cc1)n1cncn1 (stereo not given) [TRIADIMEFON] | 60% | 52% | 76% | 61% | 64% | 61% | – | – | – | – | – |
| COc1cccc2c1C(=O)c1c(O)c3c(c(O)c1C2=O)C[C@@](O)(C(=O)CO)C[C@@H]3O[C@H]1C[C@H](N)[C@H](O)[C@H](C)O1 [DOXORUBICIN] | – | – | – | – | – | – | 0.53 µM | 0.19 µM | 0.56 µM | 0.53 µM | 2.1 µM |
| CCN1C(=O)N(CC)C2C1NC(=S)N2/N=C/C=C/c1ccc(OC)cc1 (stereo not given) | 14% | 26% | 19% | 23% | 18% | 0% | 17.2 µM | 17.4 µM | 36.6 µM | 87 µM | – |
| CCSC1=NC2C(N(CC)C(=O)N2CC)N1/N=C/C=C/c1ccccc1 (stereo not given) | 30% | 67% | 77% | 63% | 61% | 29% | – | – | – | – | – |
| COc1ccc(/C=C/C=N/N2C(SC)=NC3C2N(C)C(=O)N3C)cc1 (stereo not given) | 13% | 74% | 50% | 36% | 24% | 19% | – | – | – | – | – |
| CCN1C(=O)N(CC)C2C1NC(=S)N2/N=C/C(C)=C/c1ccccc1 (stereo not given) | 25% | 34% | 7% | 41% | 23% | 5% | > 100 µM | 26.6 µM | 35.1 µM | 20 µM | – |
| CN1C(=O)N(C)C2C1NC(=S)N2/N=C/C=C/c1ccccc1 (stereo not given) | – | – | – | – | – | – | 45.6 µM | 43 µM | > 100 µM | 46 µM | – |
| CSC1=NC2C(N(C)C(=O)N2C)N1/N=C/C=C/c1ccccc1 (stereo not given) | 9% | 45% | 50% | 73% | 71% | 17% | – | – | – | – | – |
| CSC1=NC2C(N(C)C(=O)N2c2ccccc2)N1/N=C/C=C/c1ccccc1[N+](=O)[O-] (stereo not given) | 16% | 12% | 37% | 9% | 10% | 17% | – | – | – | – | – |
| CCN1C(=O)N(CC)C2C1N=C(SC)N2/N=C/C=C/c1ccccc1[N+](=O)[O-] (stereo not given) | – | – | – | – | – | – | > 100 µM | 65.6 µM | 66.7 µM | 41.9 µM | – |
| CCN1C(=O)N(c2ccccc2)C2NC(=S)N(/N=C/C=C/c3ccccc3)C21 (stereo not given) | – | – | – | – | – | – | > 100 µM | 1.46 µM | 2.25 µM | 0.47 µM | 2.17 µM |
| CCSC1=NC2C(N(CC)C(=O)N2CC)N1/N=C/C=C/c1ccccc1[N+](=O)[O-] (stereo not given) | 10% | 44% | 39% | 22% | 12% | 12% | > 100 µM | 5.07 µM | 30.7 µM | 2.45 µM | 221 µM |
